Measurements as given in patent US6479472B1, “Methods of using therapeutic phospholipid derivatives” (Asta Medica Aktiengesellschaft, priority 1993, dated 2002).
Structures can show the parent of a compound that is named as a salt.

How the values were obtained:
[1] = test system: DMBA-induced mammary carcinomas; test: DMBA-induced mammary carcinoma model, oral treatment, tumor weight by palpation (Experiment 1); assay type: in vivo, female Sprague-Dawley rats; details: for efficacy of standard cytostatics: DMBA-induced mammary carcinomas in test rats
Excerpt: The first tumor appeared approximately one month after feeding the subject rats with DMBA. Tumor weights were estimated on the basis of tumor volume. This was accomplished by palpating tumors and comparing the volumes of the palpated tumors with the volumes of prefabricated plasticine models in the manner taught by Druckrey, et al., “Experimentelle Beiträge zum Dosis-Problem in der Krebs-Chemotherapie und zur Wirkungsweise von Endoxan, Dtsch. Med. Wschr., 88:651 (1963). Each of the relevant plasticine models was then weighed and converted to a tumor weight by means of a factor reflecting the relationship between the specific weight of each tumor tissue and its corresponding plasticine model. […] A statistical evaluation of the resulting data indicated a correlation coefficient of 0.98. Test rats having a total tumor weight of approximately 1 g were randomly allocated amongst various dosage and control groups, each group having a total of 6-7 rats. In this way, the inventors were able to ensure an approximately equal distribution amongst the experimental groups of tumors having different latencies, total tumor weight and numbers of tumor nodes. […] The control group was given tap water in accordance with the same schedule. […] During the observation period, tumor weights were determined for each of the test rats at regular intervals. The test rats were all housed under specific pathogen free (SPF) conditions with unrestricted water supply (acidified to pH 3) and standard pellet lab chow (Altromin 1324). […] J. Oncol., 2:161 (1993).

[2] = test system: DMBA-induced mammary carcinomas / KB implanted tumors; test: Summary statement on Experiments 1 and 2 (DMBA and KB tumor models, model not told per compound); assay type: in vivo, rats / mice; details: for GII (growth inhibition index): specified dosage regimens, model not given, GII>100% = tumor regression; for tumor remission: model and regimen not given
Procedure: The inventors induced mammary carcinomas in female Sprague-Dawley rats (Mollegaard Breeding Center, DK-4236 Ejby) aged 50 days by administering a single dose of 20 mg 7,12-dimethylbenz(a)anthracene (DMBA) dissolved in 1 ml of olive oil to each rat by gavage. The first tumor appeared approximately one month after feeding the subject rats with DMBA.
(§1) The inventors used female, nu/nu mice (strain NMRI) aged 9-10 weeks and weighing 21-29 g (Breeder: Bomholtgard Breeding and Research Center, DK-8680 Ry) for testing. Tumor fragments consisting of the human KB tumors (ATCC; Rockville, Md.; cell line ATCC CCL 17 KB, human epidermoid larynx tumors), and having an average diameter of 2 mm, were implanted subcutaneously into the right side of the test mice.
Results from Experiments 1 and 2 were calculated and expressed in accordance with the growth inhibition index (GII) described in Voegeli, et al., “Selective cytostatic activity of Hexadecylphosphocholine against tumor cells in vitro leads to the establishment of an in vivo screening system for phospholipid analogues,” Int. J. Oncol., 2:161 (1993). The GII values from Experiments 1 and 2 are detailed in Table 1 below.

[3] = test system: human KB tumors (ATCC CCL 17 KB, human epidermoid larynx tumors); test: KB tumor model, subcutaneous implants in nude mice, oral treatment (Experiment 2); assay type: in vivo, female nu/nu mice (strain NMRI); details: for efficacy of standard cytostatics: KB implanted tumors in test mice
Excerpt: as §1
The test mice were randomly assigned to various treatment and control groups.
Tumor weights were estimated by first palpating the tumors and then comparing the volumes of the palpated tumors with the volumes of prefabricated plasticine models according to Druckrey, et al., “Experimentelle Beiträge zum Dosis-Problem in der Krebs-Chemotherapie und zur Wirkungsweise von Endoxan, Dtsch. Med. Wschr., 88:651 (1963). After determining the weight of the models, the inventors converted each of these values to a tumor weight by determining the relationship between the specific weight of each tumor tissue and its corresponding plasticine model. To ensure the accuracy of this method, the inventors simultaneously estimated the weights of 99 individual tumors by both palpation and direct weighing of extirpated tumors.
Once the KB tumor implants attained a weight of approximately 0.2 g, the inventors commenced therapy with the compounds of Examples 1, 8, 17, 21, 22, 24 and 25 of the subject application. Each compound was dissolved in 0.9% NaCl and administered per os (stomach tube) in accordance with the regimen schedules detailed in Graphs 10-17 hereinbelow. The control mice were treated with the vehicle alone.
During the observation period, tumor weights were determined for each of the test mice at regular intervals.
The test mice were all housed under specific pathogen free (SPF) conditions with unrestricted water supply (acidified to pH 3) and standard pellet lab chow (Altromin 1324).

[4] = 4 × 100 mg/kg per os, treatment day 0, 3, 7, 10, >100 = tumor regression
[5] = 2 × 316 mg/kg per os, treatment day 0, 7

CCCCCCCCCCCCCCCCOP(=O)([O-])OCC1CCC[N+]1(C)C (centres unmarked) [Example 20, Hexadecyl (1,1-dimethylpyrrolidinio-2-yl)methyl phosphate]
DMBA (G.I.I. %) [1, 4]: 99%
GII (growth inhibition index) [2]: 100%

N.N.[Cl][Pt][Cl] [Cisplatin, reference compound]
efficacy of standard cytostatics [3]: relatively ineffective
efficacy of standard cytostatics [1]: relatively ineffective

CCCCCCCCCCCCCCCCCCOP(=O)([O-])OC1CCC[N+](C)(C)CC1 (centres unmarked) [Example 13, Octadecyl 1,1-dimethylhexahydroazepinio-4-yl phosphate]
DMBA (G.I.I. %) ([1]; 1 × 511 mg/kg per os, 'large tumors', treatment day 0): 145%
DMBA (G.I.I. %) ([1]; 14 × 46.4 mg/kg per os, treatment day 0-13): 129%

COc1cccc2c1C(=O)c1c(O)c3c(c(O)c1C2=O)C[C@@](O)(C(=O)CO)C[C@@H]3O[C@H]1C[C@H](N)[C@H](O)[C@H](C)O1 [Adriamycin, reference compound]
efficacy of standard cytostatics [3]: relatively ineffective
efficacy of standard cytostatics [1]: relatively ineffective

CCCCCCCCCCCCCCCCCCOP(=O)([O-])OC1CC2CCC(C1)[N+]2(C)C (centres unmarked) [Example 25, Octadecyl 1,1-dimethyltropanio-4-yl phosphate]
KB (G.I.I. %) [3, 5]: 110%
tumor remission [2]: complete disappearance of tumors

CCCCCCCCCCCCCCCCCCOP(=O)([O-])OCC1CCC[N+]1(C)C (centres unmarked) [Example 21, Octadecyl (1,1-dimethylpyrrolidinio-2-yl)methyl phosphate]
KB (G.I.I. %) [3, 5]: 106%
DMBA (G.I.I. %) [1, 4]: 116%
tumor remission [2]: complete disappearance of tumors

CCCCCCCCCCCCCCCCCCOP(=O)([O-])OC1CC[N+](C)(C)C1 (centres unmarked) [Example 17, Octadecyl 1,1-dimethylpyrrolidinio-3-yl phosphate]
KB (G.I.I. %) ([3]; 2 × 100 mg/kg per os, treatment day 0, 7): 90%

CCCCCCCCCCCCCCCCCCOP(=O)([O-])OC1CC[N+](C)(C)CC1 [Example 1, 4-(((Octadecyloxy)hydroxyphosphenyl)oxy)-1,1-dimethylpiperidinium hydroxide internal salt]
KB (G.I.I. %) ([3]; 1 × 511 mg/kg per os, treatment day 0): 103%
DMBA (G.I.I. %) [1, 4]: 119%
DMBA (G.I.I. %) ([1]; 14 × 31.6 mg/kg per os, treatment day 0-13): 108%
DMBA (G.I.I. %) ([1]; 28 × 68.1 mg/kg per os, 'large tumors', treatment day 0-27): 137%
tumor remission [2]: complete disappearance of tumors

CCCCCCCCCCCCCCCCCCOP(=O)([O-])OCC1CCC[N+](C)(C)C1 (centres unmarked) [Example 10, Octadecyl (1,1-dimethylpiperidinio-3-yl)methyl phosphate]
KB (G.I.I. %) [3, 5]: 99%
GII (growth inhibition index) [2]: 100%

CCCCCCCCCCCCCCCCOP(=O)([O-])OC1C[N+]2(C)CCC1CC2 (centres unmarked) [Example 22, Hexadecyl 1-methylquinuclidinio-3-yl phosphate]
KB (G.I.I. %) ([3]; 2 × 383 mg/kg per os, treatment day 0, 7): 102%
DMBA (G.I.I. %) [1, 4]: 105%

CCCCCCCCCCCCCCCCCCOP(=O)([O-])OCC1CCCC[N+]1(C)C (centres unmarked) [Example 8, Octadecyl (1,1-dimethylpiperidinio-2-yl)methyl phosphate]
KB (G.I.I. %) [3, 5]: 100%
DMBA (G.I.I. %) [1, 4]: 125%
GII (growth inhibition index) [2]: 100%

CCCCCCCCCCCCCCCCOP(=O)([O-])OC1CC2CCC(C1)[N+]2(C)C (centres unmarked) [Example 24, Hexadecyl 1,1-dimethyltropanio-4-yl phosphate]
KB (G.I.I. %) ([3]; 2 × 215 mg/kg per os, treatment day 0, 7): 108%

O=P1(N(CCCl)CCCl)NCCCO1 (centres unmarked) [Cyclophosphamide, reference compound]
efficacy of standard cytostatics [3]: relatively ineffective
efficacy of standard cytostatics [1]: relatively ineffective
